ChEMBL document CHEMBL1799932, “Antimalarial pyrido[1,2-a]benzimidazoles” (J Med Chem, 2011)
pIC50: −log10 of the molar value.

Columns and labels:
L6 = test: Cytotoxicity at rat L6 cells after 72 hrs by microplate alamar blue assay; format: cell-based
Plasmodium berghei = test: Antimalarial activity against GFP-transfected Plasmodium berghei strain ANKA infected in NMRI mouse assessed as reduction in parasitemia at 50 mg/kg/day, ip administered for 4 consecutive days measured 24 hrs after last treatment by FACS analysis relative to control; format: functional; parameters: scale not given: the % may be the effect or the level left; conditions: route intraperitoneal
Plasmodium falciparum [1] = tested on: Plasmodium falciparum
Description: (§1) Antimalarial activity against multidrug-resistant Plasmodium falciparum K1 infected in human red blood cells assessed as 3H-hypoxanthine incorporation after 48 hrs by liquid scintillation counting

[2] = Selectivity index, ratio IC50 for rat L6 cells to IC50 for multidrug-resistant Plasmodium falciparum K1 infected in human red blood cells; format: functional
[3] = Distribution coefficient, log D of the compound at pH 7.4; format: physicochemical; conditions: octanol/water
Plasmodium falciparum [4] = test: microbe, parasite or virus in culture; conditions: K1
Description: as §1

Compound | pIC50 (L6; l6) | Activity (Plasmodium berghei) [%] | pIC50 (Plasmodium falciparum [1]) | Ratio IC50 [2] | pIC50 (L6; Rattus norvegicus, L6, 72 h) | logD [3] | pIC50 (Plasmodium falciparum [4])
CCN(CC)CCCNc1cc(-c2cccc(C(F)(F)F)c2)c(C#N)c2nc3ccccc3n12.Cl.Cl | 4.93 | 0 | 6.60 | – | – | – | –
CN(C)CCCNc1cc(-c2ccc(C(F)(F)F)cc2)c(C#N)c2nc3ccccc3n12 | – | – | – | 455 | < 3.70 | 2.49 | 6.36
CN(C)CCCNc1cc(-c2ccc(F)cc2)c(C#N)c2nc3ccccc3n12 | – | – | – | 43 | 4.94 | 1.45 | 6.57
CCN(CC)CCCNc1cc(C(F)(F)F)c(C#N)c2nc3ccccc3n12 | – | – | – | 42.2 | 4.06 | 2.54 | 5.68
N#Cc1c(-c2cccc(C(F)(F)F)c2)cc(NCCN)n2c1nc1ccccc12 | – | – | – | 11.7 | 4.93 | 1.8 | 6.00
CCN(CC)CCCNc1cc(-c2ccc(Cl)cc2)c(C#N)c2nc3ccccc3n12 | – | – | – | 287 | 4.31 | 2.57 | 6.77
CN(C)CCCNc1cc(-c2cccc(C(F)(F)F)c2)c(C#N)c2nc3ccccc3n12 | – | – | – | 474 | 3.74 | 2.49 | 6.42
CN(C)CCNc1cc(-c2ccccc2)c(C#N)c2nc3ccccc3n12 | – | – | – | >50 | < 4.10 | 1.48 | 5.83
N#Cc1c(-c2ccc(C(F)(F)F)cc2)cc(NCCN)n2c1nc1ccccc12 | – | – | – | 3.4 | 5.29 | 1.8 | 5.83
COc1cc([C@@H]2c3cc4c(cc3[C@H](O)[C@H]3COC(=O)[C@H]23)OCO4)cc(OC)c1OC [PODOFILOX] | – | – | – | – | 8.05 | – | –
CN(C)CCNc1cc(C(F)(F)F)c(C#N)c2nc3ccccc3n12 | – | – | – | 13 | 4.35 | 2.01 | 5.46
CN(C)CCNc1cc(-c2cccc(F)c2)c(C#N)c2nc3ccccc3n12 | – | – | – | 7 | 5.23 | 1.5 | 6.08
CCN(CC)CCNc1cc(-c2ccccc2)c(C#N)c2nc3ccccc3n12 | – | – | – | 108 | 3.92 | 1.89 | 5.95
CN(C)CCNc1cc(-c2ccc(C(F)(F)F)cc2)c(C#N)c2nc3ccccc3n12 | – | – | – | >1600 | < 3.68 | 2.45 | 6.89
N#Cc1c(-c2cccc(C(F)(F)F)c2)cc(NCCCN)n2c1nc1ccccc12 | – | – | – | 6.9 | 5.36 | 1.46 | 6.20
CN(C)CCCNc1cc(-c2ccccc2)c(C#N)c2nc3ccccc3n12 | – | – | – | 71 | 3.97 | 1.52 | 5.82
CCN(CC)CCCNc1cc(-c2cccc(C(F)(F)F)c2)c(C#N)c2nc3ccccc3n12 | 4.61 | – | – | 128 | – | 2.97 | 6.72
CN(C)CCNc1cc(-c2ccc(F)cc2)c(C#N)c2nc3ccccc3n12 | – | – | – | 70 | 4.71 | 1.41 | 6.55
CCN(CC)CCNc1cc(C(F)(F)F)c(C#N)c2nc3ccccc3n12 | – | – | – | 63.7 | 3.92 | 2.51 | 5.72
CN(C)CCCNc1cc(-c2ccc(Cl)cc2)c(C#N)c2nc3ccccc3n12 | – | – | – | >1000 | < 3.68 | 2.09 | 6.68
CN(C)CCCNc1cc(C(F)(F)F)c(C#N)c2nc3ccccc3n12 | – | – | – | 52.5 | 3.78 | 2.06 | 5.50

Compound | pIC50 (L6; l6) | Activity (Plasmodium berghei) [%] | pIC50 (Plasmodium falciparum [1]) | Ratio IC50 [2] | pIC50 (L6; Rattus norvegicus, L6, 72 h) | logD [3] | pIC50 (Plasmodium falciparum [4])
N#Cc1c(-c2ccccc2)cc(NCCCN)n2c1nc1ccccc12 | – | – | – | 5.2 | 4.92 | 0.49 | 5.64
CN(C)CCCNc1cc(-c2cccc(C(F)(F)F)c2)c(C#N)c2nc3ccccc3n12.Cl.Cl | 4.72 | 0 | 6.31 | – | – | – | –
CCN(CC)CCNc1cc(-c2ccc(Cl)cc2)c(C#N)c2nc3ccccc3n12 | – | – | – | 683 | 4.39 | 2.54 | 7.22
CN(C)CCCNc1cc(-c2cccc(F)c2)c(C#N)c2nc3ccccc3n12 | – | – | – | 29 | 4.81 | 1.54 | 6.28
CCN(CC)CCNc1cc(-c2ccc(F)cc2)c(C#N)c2nc3ccccc3n12 | – | – | – | 226 | 4.25 | 1.9 | 6.60
N#Cc1c(-c2ccc(C(F)(F)F)cc2)cc(NCCN2CCOCC2)n2c1nc1ccccc12 | – | – | – | 68 | 4.48 | 3.72 | 6.31
N#Cc1c(-c2ccc(C(F)(F)F)cc2)cc(NCCCN)n2c1nc1ccccc12 | – | – | – | 6.8 | 5.20 | 1.46 | 6.04
N#Cc1c(-c2ccc(C(F)(F)F)cc2)cc(NCCCN2CCOCC2)n2c1nc1ccccc12 | – | – | – | 80.6 | 4.01 | 3.79 | 5.91
CN(C)CCNc1cc(-c2cccc(C(F)(F)F)c2)c(C#N)c2nc3ccccc3n12 | – | – | – | 24.6 | 5.15 | 2.45 | 6.54
CCNCCN(CC)c1cc(-c2ccc(C(F)(F)F)cc2)c(C#N)c2nc3ccccc3n12 | – | – | – | 22.9 | 4.67 | 3.52 | 6.03
CN(C)CCCNc1cc(-c2ccc(C(F)(F)F)cc2)c(C#N)c2nc3ccccc3n12.Cl.Cl | 4.68 | 30.7 | 6.59 | – | – | – | –
N#Cc1c(-c2ccc(C(F)(F)F)cc2)cc(NCCN2CCCC2)n2c1nc1ccccc12 | – | – | – | 2751 | 3.84 | 2.58 | 7.28
CCN(CC)CCNc1cc(-c2cccc(C(F)(F)F)c2)c(C#N)c2nc3ccccc3n12 | – | – | – | 243 | 3.99 | 2.94 | 6.38
CCN(CC)CCCNc1cc(-c2cccc(F)c2)c(C#N)c2nc3ccccc3n12 | – | – | – | 121 | 4.25 | 2.02 | 6.34
CCN(CC)CCNc1cc(-c2cccc(F)c2)c(C#N)c2nc3ccccc3n12 | – | – | – | 225 | 3.91 | 1.99 | 6.26
N#Cc1c(C(F)(F)F)cc(NCCN)n2c1nc1ccccc12 | – | – | – | 13 | 4.40 | 1.37 | 5.51
N#Cc1c(-c2ccc(C(F)(F)F)cc2)cc(NCCN2CCCCC2)n2c1nc1ccccc12 | – | – | – | 3581 | 3.71 | 3.78 | 7.27
CCN(CC)CCCNc1cc(-c2ccccc2)c(C#N)c2nc3ccccc3n12 | – | – | – | >150 | < 3.64 | 2 | 5.82
CCN(CC)CCCNc1cc(-c2ccc(C(F)(F)F)cc2)c(C#N)c2nc3ccccc3n12 | < 3.72 | – | – | >633 | – | 2.97 | 6.52
CN(C)CCNc1cc(-c2ccc(Cl)cc2)c(C#N)c2nc3ccccc3n12 | – | – | – | 62.9 | 4.71 | 2.05 | 6.51
CCN(CC)CCCNc1cc(-c2ccc(F)cc2)c(C#N)c2nc3ccccc3n12 | – | – | – | 122 | 4.06 | 1.93 | 6.15
